From patent US11053234B2 (GlaxoSmithKline Intellectual Property Development Limited, priority 2016, dated 2021)
Structures can show the parent of a compound that is named as a salt.

Target: T1, haematopoietic prostaglandin D synthase (H-PGDS) (Homo sapiens, UniProt O60760)
T1 construct: Full length human H-PGDS cDNA (Invitrogen Ultimate ORF 10H13026) was amplified by PCR; 6-His (N); TEV protease cleavage site (N); made in house; host or cells: E. coli BL21 (DE3*), vector pET22b+
Assay: H-PGDS RapidFire high throughput mass spectrometry assay (conversion of PGH2 to PGD2)
Format: biochemical
Details: 10 nM H-PGDS, PGH2 formed in situ by COX-2 from arachidonic acid; read-out: Potency Range (mean pIC50) (converted)
In short: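 RapidFire SPE–MS read-out calculated percent conversion from relative PGD2 and PGF2α (substrate surrogate) levels. Recombinant full-length human H-PGDS (His-tag, E. coli) turned over PGH2, produced in situ at ˜10 μM by human COX-2 (FLAG-tag, Sf9 cells) acting on arachidonic acid.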

T1 sequence (O60760 whole entry): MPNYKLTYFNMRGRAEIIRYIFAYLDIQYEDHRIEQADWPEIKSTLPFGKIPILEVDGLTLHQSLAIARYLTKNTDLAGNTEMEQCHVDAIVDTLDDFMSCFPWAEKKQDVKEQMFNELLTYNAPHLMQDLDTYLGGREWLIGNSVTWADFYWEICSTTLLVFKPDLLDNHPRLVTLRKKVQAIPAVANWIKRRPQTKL

Question: Which IC50 does the source give for `O=C(Nc1nc(CO)cs1)[C@H]1C[C@H](Oc2cccc3cccnc23)C1` [Example 215, (trans)-N-(4-(Hydroxymethyl)thiazol-2-yl)-3-(quinolin-8-yloxy)cyclobutanecarboxamide] here?
Answer: 10 to 79.4 nM

Question: `Cc1cnc(NC(=O)[C@H]2C[C@H](Oc3cccc4cccnc34)C2)s1` [Example 217, (trans)-N-(5-Methylthiazol-2-yl)-3-(quinolin-8-yloxy)cyclobutanecarboxamide] was tested. Which IC50 did it give?
Answer: 10 to 79.4 nM

Question: `CC(C)(O)[C@H]1CC[C@H](NC(=O)[C@H]2C[C@H](Oc3ccccc3Cl)C2)CC1` [Example 282, (trans)-3-(2-Chlorophenoxy)-N-((trans)-4-(2-hydroxypropan-2-yl)cyclohexyl)cyclobutanecarboxamide] was tested. Which IC50 did it give?
Answer: 100 to 1000 nM

Question: How did the IC50 turn out when `CC(=O)c1csc(NC(=O)[C@H]2C[C@H](Oc3cc(Cl)ccc3OC(F)F)C2)n1` [Example 272, (trans)-N-(4-Acetylthiazol-2-yl)-3-(5-chloro-2-(difluoromethoxy)phenoxy)cyclobutanecarboxamide] was run?
Answer: 10 to 79.4 nM

Question: `O=C(NCc1ccsc1)[C@H]1C[C@H](Oc2cccc3scnc23)C1` [Example 252] was tested. Which IC50 did it give?
Answer: 100 to 1000 nM

Question: `O=C(NC1CN(c2cnccn2)C1)[C@H]1C[C@H](Oc2cc(F)cc3scnc23)C1` [Example 235, (trans)-3-((6-Fluorobenzo[d]thiazol-4-yl)oxy)-N-(1-(pyrazin-2-yl)azetidin-3-yl)cyclobutanecarboxamide] was tested. Which IC50 did it give?
Answer: 10 to 79.4 nM

Question: With `C[C@]1(O)CC[C@H](NC(=O)[C@H]2C[C@H](Oc3cc(F)ccc3OC(F)F)C2)CC1` [Example 29, (trans)-3-(2-(Difluoromethoxy)-5-fluorophenoxy)-N-((trans)-4-hydroxy-4-methylcyclohexyl)cyclobutanecarboxamide] as the molecule, how does the IC50 read?
Answer: 10 to 79.4 nM

Question: For `COc1ccc(F)cc1O[C@H]1C[C@H](C(=O)NC2CCN(c3nnnn3C)CC2)C1` [Example 152, (trans)-3-(5-Fluoro-2-methoxyphenoxy)-N-(1-(1-methyl-1H-tetrazol-5-yl)piperidin-4-yl)cyclobutanecarboxamide], which IC50 is on record?
Answer: 10 to 79.4 nM

Question: `CC(C)(O)CO[C@H]1CC[C@H](NC(=O)[C@H]2C[C@H](Oc3cc(F)ccc3OC(F)F)C2)CC1` [Example 33, (trans)-3-(2-(Difluoromethoxy)-5-fluorophenoxy)-N-((trans)-4-(2-hydroxy-2-methylpropoxy)cyclohexyl)cyclobutanecarboxamide] was tested. Which IC50 did it give?
Answer: 10 to 79.4 nM

Question: With `CC(C)(O)[C@H]1CC[C@H](NC(=O)[C@H]2C[C@H](Oc3cccc4cccnc34)C2)CC1` [Example 225, N-((trans)-4-(2-Hydroxypropan-2-yl)cyclohexyl)-3-(quinolin-8-yloxy)cyclobutanecarboxamide] as the molecule, how does the IC50 read?
Answer: 10 to 79.4 nM

Question: For `CN(C)c1nccc(N2CC(NC(=O)[C@H]3C[C@H](Oc4cccc5scnc45)C3)C2)n1` [Example 76, (trans)-3-(Benzo[d]thiazol-4-yloxy)-N-(1-(2-(dimethylamino)pyrimidin-4-yl)azetidin-3-yl)cyclobutanecarboxamide], which IC50 is on record?
Answer: 100 to 1000 nM

Question: `CC(C)(O)C12C3C4C1C1C2C3C41NC(=O)[C@H]1C[C@H](Oc2cccc3scnc23)C1` (stereo partly drawn) [Example 320, (trans)-3-(Benzo[d]thiazol-4-yloxy)-N-(4-(2-hydroxypropan-2-yl)cuban-1-yl)cyclobutane-1-carboxamide] was tested. Which IC50 did it give?
Answer: 10 to 79.4 nM

Question: Which IC50 does the source give for `CCOC(=O)NC12CC(NC(=O)[C@H]3C[C@H](Oc4cccc5scnc45)C3)(C1)C2` [Example 319, Ethyl (3-((trans)-3-(benzo[d]thiazol-4-yloxy)cyclobutane-1-carboxamido)bicyclo[1.1.1]pentan-1-yl)carbamate] here?
Answer: 10 to 79.4 nM

Question: For `COc1ccc(F)cc1O[C@H]1C[C@H](C(=O)N[C@H]2CC[C@H](OCC(C)(C)O)CC2)C1` [Example 169, (trans)-3-(5-Fluoro-2-methoxyphenoxy)-N-((trans)-4-(2-hydroxy-2-methylpropoxy)cyclohexyl)cyclobutanecarboxamide], which IC50 is on record?
Answer: 10 to 79.4 nM

Question: How did the IC50 turn out when `CS(=O)(=O)N1CCC(NC(=O)N2CC(Oc3cccc4scnc34)C2)CC1` [Example 97, 3-(Benzo[d]thiazol-4-yloxy)-N-(1-(methylsulfonyl)piperidin-4-yl)azetidine-1-carboxamide] was run?
Answer: 100 to 1000 nM

Question: `COc1ccc(F)cc1O[C@H]1C[C@H](C(=O)NC2CC3(C2)CN(c2cc(C#N)ccn2)C3)C1` [Example 148, (trans)-N-(2-(4-Cyanopyridin-2-yl)-2-azaspiro[3.3]heptan-6-yl)-3-(5-fluoro-2-methoxyphenoxy)cyclobutanecarboxamide] was tested. Which IC50 did it give?
Answer: 10 to 79.4 nM

Question: For `O=C(NC1CCc2ccccc21)[C@H]1C[C@H](Oc2cccc(Cl)c2)C1` (mixture of isomers) [Example 286, Racemic (trans)-3-(3-Chlorophenoxy)-N-(2,3-dihydro-1H-inden-1-yl)cyclobutanecarboxamide], which IC50 is on record?
Answer: 10 to 79.4 nM

Question: `CC(C)(O)[C@H]1CC[C@H](NC(=O)N2CC(Oc3cccc4scnc34)C2)CC1` [Example 108, 3-(Benzo[d]thiazol-4-yloxy)-N-((trans)-4-(2-hydroxypropan-2-yl)cyclohexyl)azetidine-1-carboxamide] was tested. Which IC50 did it give?
Answer: 10 to 79.4 nM

Question: With `COc1ccc(F)cc1O[C@H]1C[C@H](C(=O)Nc2nnc(C)s2)C1` [Example 166, (trans)-3-(5-Fluoro-2-methoxyphenoxy)-N-(5-methyl-1,3,4-thiadiazol-2-yl)cyclobutanecarboxamide] as the molecule, how does the IC50 read?
Answer: 10 to 79.4 nM

Question: For `CC(C)(O)C(=O)N1CCC(NC(=O)[C@H]2C[C@H](Oc3cc(F)cc4scnc34)C2)CC1` [Example 303, (trans)-3-((6-Fluorobenzo[d]thiazol-4-yl)oxy)-N-(1-(2-hydroxy-2-methylpropanoyl)piperidin-4-yl)cyclobutanecarboxamide], which IC50 is on record?
Answer: 100 to 1000 nM

Question: Which IC50 does the source give for `O=C(NC1CN(c2ccnc(Cl)n2)C1)[C@H]1C[C@H](Oc2cccc3scnc23)C1` [Example 69, (trans)-3-(Benzo[d]thiazol-4-yloxy)-N-(1-(2-chloropyrimidin-4-yl)azetidin-3-yl)cyclobutanecarboxamide] here?
Answer: 10 to 79.4 nM

Question: How did the IC50 turn out when `O=C(NC1CN(c2ncc(F)cn2)C1)N1CC(Oc2cc(F)cc3scnc23)C1` [Example 135, 3-((6-Fluorobenzo[d]thiazol-4-yl)oxy)-N-(1-(5-fluoropyrimidin-2-yl)azetidin-3-yl)azetidine-1-carboxamide] was run?
Answer: 10 to 79.4 nM

Question: How did the IC50 turn out when `O=C(NC1CN(c2ccc(F)cn2)C1)N1CC(Oc2cc(F)cc3scnc23)C1` [Example 119, 3-((6-Fluorobenzo[d]thiazol-4-yl)oxy)-N-(1-(5-fluoropyridin-2-yl)azetidin-3-yl)azetidine-1-carboxamide] was run?
Answer: 10 to 79.4 nM

Question: For `CC1C(Oc2cccc3scnc23)CN1C(=O)N[C@H]1CC[C@H](C(C)(C)O)CC1` (mixture of isomers) [Example 240, Racemic 3-(Benzo[d]thiazol-4-yloxy)-N-((trans)-4-(2-hydroxypropan-2-yl)cyclohexyl)-2-methylazetidine-1-carboxamide], which IC50 is on record?
Answer: 10 to 79.4 nM

Question: How did the IC50 turn out when `CN(C)C(=O)c1csc(NC(=O)[C@H]2C[C@H](Oc3cccc4cccnc34)C2)n1` [Example 197, N,N-Dimethyl-2-((trans)-3-(quinolin-8-yloxy)cyclobutanecarboxamido)thiazole-4-carboxamide, trifluoroacetic acid salt] was run?
Answer: < 10 nM

Question: `CC(C)(O)[C@H]1CC[C@H](NC(=O)[C@H]2C[C@H](Nc3cccc4cccnc34)C2)CC1` [Example 222, (trans)-N-((trans)-4-(2-Hydroxypropan-2-yl)cyclohexyl)-3-(quinolin-8-ylamino)cyclobutanecarboxamide] was tested. Which IC50 did it give?
Answer: 100 to 1000 nM

Question: How did the IC50 turn out when `CCOC(=O)c1csc(NC(=O)[C@H]2C[C@H](Oc3cccc4cccnc34)C2)n1` [Example 192, Ethyl 2-((trans)-3-(quinolin-8-yloxy)cyclobutanecarboxamido)thiazole-4-carboxylate] was run?
Answer: < 10 nM

Question: With `O=C(Nc1cccc(N2CCOCC2)c1)[C@H]1C[C@H](Oc2cccc3scnc23)C1` [Example 248, (trans)-3-(Benzo[d]thiazol-4-yloxy)-N-(3-morpholinophenyl)cyclobutanecarboxamide] as the molecule, how does the IC50 read?
Answer: 10 to 79.4 nM

Question: With `COc1ccc(F)cc1O[C@H]1C[C@H](C(=O)Nc2cccc(C#N)n2)C1` [Example 159, (trans)-N-(6-Cyanopyridin-2-yl)-3-(5-fluoro-2-methoxyphenoxy)cyclobutanecarboxamide] as the molecule, how does the IC50 read?
Answer: 10 to 79.4 nM

Question: How did the IC50 turn out when `O=C(Nc1nnc(C2CC2)s1)[C@H]1C[C@H](Oc2cccc3cccnc23)C1` [Example 199, (trans)-N-(5-Cyclopropyl-1,3,4-thiadiazol-2-yl)-3-(quinolin-8-yloxy)cyclobutanecarboxamide] was run?
Answer: 10 to 79.4 nM

Question: For `COc1ccc(F)cc1O[C@H]1C[C@H](C(=O)NC2CCN(C(=O)OC(C)(C)C)C2)C1` (mixture of isomers) [Example 143, tert-butyl 3-((trans)-3-(5-fluoro-2-methoxyphenoxy)cyclobutanecarboxamido)pyrrolidine-1-carboxylate], which IC50 is on record?
Answer: 10 to 79.4 nM

Question: With `CC(C)(C)OC(=O)N[C@H]1C[C@H](NC(=O)[C@H]2C[C@H](Oc3cccc4scnc34)C2)C1` [Example 66, tert-butyl ((trans)-3-((trans)-3-(benzo[d]thiazol-4-yloxy)cyclobutanecarboxamido)cyclobutyl)carbamate] as the molecule, how does the IC50 read?
Answer: 100 to 1000 nM

Question: `COc1ccc(F)cc1O[C@H]1C[C@H](C(=O)Nc2ncc(C(C)=O)s2)C1` [Example 164, (trans)-N-(5-Acetylthiazol-2-yl)-3-(5-fluoro-2-methoxyphenoxy)cyclobutanecarboxamide] was tested. Which IC50 did it give?
Answer: < 10 nM

Question: Which IC50 does the source give for `CC1(NC(=O)[C@H]2C[C@H](Oc3cc(F)cc4scnc34)C2)CN(c2cccnn2)C1` [Example 237, (trans)-3-((6-Fluorobenzo[d]thiazol-4-yl)oxy)-N-(3-methyl-1-(pyridazin-3-yl)azetidin-3-yl)cyclobutanecarboxamide] here?
Answer: 100 to 1000 nM

Question: Which IC50 does the source give for `COC(=O)C12CCC(NC(=O)[C@H]3C[C@H](Oc4cccc5scnc45)C3)(CC1)CC2` [Example 326, Methyl 4-((trans)-3-(benzo[d]thiazol-4-yloxy)cyclobutane-1-carboxamido)bicyclo[2.2.2]octane-1-carboxylate] here?
Answer: 10 to 79.4 nM
